Source: US6737383B1, “Herbicidal oxadiazolidines” (priority 1999, dated 2004)

How the values were obtained:
cocklebur = experiment: Test B pre/postemergence cocklebur; format: in vivo, Xanthium strumarium
Method in brief: (§1)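 Response is a visual 0-to-10 score relative to untreated plants, where 0 means no effect and 10 means complete control, taken twelve to sixteen days after application. Treatments went onto soil at planting and onto foliage of 1- to 4-leaf plants, using a surfactant-containing non-phytotoxic solvent.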

corn = experiment: Test B pre/postemergence corn; format: in vivo, Zea mays
Method in brief: as §1

crabgrass = experiment: Test B pre/postemergence crabgrass; format: in vivo, Digitaria sanguinalis
Method in brief: as §1

giant foxtail = experiment: Test B pre/postemergence giant foxtail; format: in vivo, Setaria faberii
Method in brief: as §1

morningglory = experiment: Test B pre/postemergence morningglory; format: in vivo, Ipomoea hederacea; conditions: for Plant response rating, Morningglory: scale of 0 to 10 where 0 is no effect and 10 is complete control
Method in brief: as §1

pigweed = experiment: Test B pre/postemergence pigweed; format: in vivo, Amaranthus retroflexus; conditions: for Plant response rating, Redroot pigweed: scale of 0 to 10 where 0 is no effect and 10 is complete control
Method in brief: as §1

rape = experiment: Test B pre/postemergence rape; format: in vivo, Brassica napus; conditions: for Plant response rating, Rape: scale of 0 to 10 where 0 is no effect and 10 is complete control
Method in brief: as §1

soybean = experiment: Test B pre/postemergence soybean; format: in vivo, Glycine max
Method in brief: as §1

sugar beet = experiment: Test B pre/postemergence sugar beet; format: in vivo, Beta vulgaris; conditions: for Plant response rating, Sugarbeets: scale of 0 to 10 where 0 is no effect and 10 is complete control
Method in brief: as §1

velvetleaf = experiment: Test B pre/postemergence velvetleaf; format: in vivo, Abutilon theophrasti; conditions: for Plant response rating, Velvetleaf: scale of 0 to 10 where 0 is no effect and 10 is complete control
Method in brief: as §1

wheat = experiment: Test B pre/postemergence wheat; format: in vivo, Triticum aestivum; conditions: for Plant response rating, Wheat: scale of 0 to 10 where 0 is no effect and 10 is complete control
Method in brief: as §1

wild oat = experiment: Test B pre/postemergence wild oat; format: in vivo, Avena fatua; conditions: for Plant response rating, Wild oats: scale of 0 to 10 where 0 is no effect and 10 is complete control
Method in brief: as §1

purple nutsedge = experiment: Test B pre/postemergence purple nutsedge; format: in vivo, Cyperus rotundus
Method in brief: as §1

rice = experiment: Test B flood test rice; format: in vivo, Oryza sativa
Method in brief: (§2)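 Read-out is a visual response score from 0 (no effect) to 10 (complete control), assigned by comparison with untreated controls. Treatment was applied at the 2-leaf stage, and plants stayed in the greenhouse for twelve to sixteen days before scoring.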

smallflower flatsedge = experiment: Test B flood test smallflower flatsedge; format: in vivo, Cyperus difformis
Method in brief: as §2

duck salad = experiment: Test B flood test duck salad; format: in vivo, Heteranthera limosa
Method in brief: as §2

[1] = Postemergence, Rate 250 g/ha, scale 0 to 10
[2] = Postemergence, Rate 500 g/ha, scale of 0 to 10 where 0 is no effect and 10 is complete control
[3] = Preemergence, Rate 62 g/ha, scale of 0 to 10 where 0 is no effect and 10 is complete control
[4] = Preemergence, Rate 125 g/ha, scale of 0 to 10 where 0 is no effect and 10 is complete control
[5] = Preemergence, Rate 250 g/ha, scale 0 to 10, 0 is no effect, 10 is complete control
[6] = Preemergence, Rate 500 g/ha, scale 0 to 10, 0 is no effect, 10 is complete control
[7] = Rate 62 g/ha, Postemergence, scale 0 to 10, 0 no effect, 10 complete control
[8] = Rate 125 g/ha, Postemergence, scale 0 to 10, 0 is no effect, 10 is complete control
[9] = Rate 62 g/ha, flood test species, Pre-emergence, visual evaluation after twelve to sixteen days
[10] = Rate 125 g/ha, under heading Pre-emergence, flood test species, visual evaluation after twelve to sixteen days
[11] = Rate 250 g/ha, Pre-emergence (flood test species), scale 0 to 10, 0 is no effect, 10 is complete control
[12] = Rate 500 g/ha, Pre-emergence, flood test species, scale 0 to 10 (0 no effect, 10 complete control)

CC(C)N(C(=O)n1oc(=O)n(COCC[Si](C)(C)C)c1=O)c1ccc(Cl)cc1 [Compound 467]
Cocklebur plant response rating (cocklebur; [1]): 0 | Cocklebur plant response rating (cocklebur; [2]): 5 | Plant response rating, Cocklebur (cocklebur; [3]): 2 | Plant response rating, Cocklebur (cocklebur; [4]): 4 | Cocklebur plant response rating (cocklebur; [5]): 6 | Cocklebur plant response rating (cocklebur; [6]): 6 | Cocklebur plant response rating (cocklebur; [7]): 0 | Cocklebur plant response rating (cocklebur; [8]): 0 | Corn plant response rating (corn; [1]): 0 | Corn plant response rating (corn; [2]): 0 | Plant response rating, Corn (corn; [3]): 0 | Plant response rating, Corn (corn; [4]): 0 | Corn plant response rating (corn; [5]): 0 | Corn plant response rating (corn; [6]): 0 | Corn plant response rating (corn; [7]): 0 | Corn plant response rating (corn; [8]): 0 | Crabgrass plant response rating (crabgrass; [1]): 0 | Crabgrass plant response rating (crabgrass; [2]): 6 | Plant response rating, Crabgrass (crabgrass; [3]): 5 | Plant response rating, Crabgrass (crabgrass; [4]): 6 | Crabgrass plant response rating (crabgrass; [5]): 6 | Crabgrass plant response rating (crabgrass; [6]): 8 | Crabgrass plant response rating (crabgrass; [7]): 0 | Crabgrass plant response rating (crabgrass; [8]): 0 | Giant foxtail plant response rating (giant foxtail; [1]): 2 | Giant foxtail plant response rating (giant foxtail; [2]): 4 | Plant response rating, Giant foxtail (giant foxtail; [3]): 0 | Plant response rating, Giant foxtail (giant foxtail; [4]): 7 | Giant foxtail plant response rating (giant foxtail; [5]): 9 | Giant foxtail plant response rating (giant foxtail; [6]): 9 | Giant foxtail plant response rating (giant foxtail; [7]): 0 | Giant foxtail plant response rating (giant foxtail; [8]): 0 | Morningglory plant response rating (morningglory; [1]): 7 | Plant response rating, Morningglory (morningglory; Preemergence, Rate 62 g/ha): 0 | Plant response rating, Morningglory (morningglory; Preemergence, Rate 125 g/ha): 0 | Morningglory plant response rating (morningglory; [5]): 0 | Morningglory plant response rating (morningglory; [6]): 0 | Morningglory plant response rating (morningglory; [7]): 3 | Morningglory plant response rating (morningglory; [8]): 7 | Redroot pigweed plant response rating (pigweed; [1]): 3 | Plant response rating, Redroot pigweed (pigweed; Preemergence, Rate 62 g/ha): 7 | Plant response rating, Redroot pigweed (pigweed; Preemergence, Rate 125 g/ha): 7 | Redroot pigweed plant response rating (pigweed; [5]): 7 | Redroot pigweed plant response rating (pigweed; [6]): 9 | Redroot pigweed plant response rating (pigweed; [8]): 0 | Rape plant response rating (rape; [1]): 4 | Plant response rating, Rape (rape; Preemergence, Rate 62 g/ha): 4 | Plant response rating, Rape (rape; Preemergence, Rate 125 g/ha): 7 | Rape plant response rating (rape; [5]): 7 | Rape plant response rating (rape; [6]): 7 | Rape plant response rating (rape; [7]): 0 | Rape plant response rating (rape; [8]): 0 | Soybean plant response rating (soybean; [1]): 0 | Plant response rating, Soybean (soybean; [4]): 0 | Soybean plant response rating (soybean; [5]): 0 | Soybean plant response rating (soybean; [6]): 0 | Soybean plant response rating (soybean; [7]): 0 | Soybean plant response rating (soybean; [8]): 0 | Sugarbeets plant response rating (sugar beet; [1]): 4 | Plant response rating, Sugarbeets (sugar beet; Preemergence, Rate 62 g/ha): 1 | Plant response rating, Sugarbeets (sugar beet; Preemergence, Rate 125 g/ha): 1 | Sugarbeets plant response rating (sugar beet; [5]): 1 | Sugarbeets plant response rating (sugar beet; [6]): 2 | Sugarbeets plant response rating (sugar beet; [7]): 0 | Sugarbeets plant response rating (sugar beet; [8]): 2 | Velvetleaf plant response rating (velvetleaf; [1]): 0 | Plant response rating, Velvetleaf (velvetleaf; Preemergence, Rate 62 g/ha): 0 | Plant response rating, Velvetleaf (velvetleaf; Preemergence, Rate 125 g/ha): 0 | Velvetleaf plant response rating (velvetleaf; [5]): 0 | Velvetleaf plant response rating (velvetleaf; [6]): 1 | Velvetleaf plant response rating (velvetleaf; [7]): 0 | Velvetleaf plant response rating (velvetleaf; [8]): 0 | Wheat plant response rating (wheat; [1]): 0 | Plant response rating, Wheat (wheat; Preemergence, Rate 62 g/ha): 0 | Plant response rating, Wheat (wheat; Preemergence, Rate 125 g/ha): 0 | Wheat plant response rating (wheat; [5]): 0 | Wheat plant response rating (wheat; [6]): 0 | Wheat plant response rating (wheat; [7]): 0 | Wheat plant response rating (wheat; [8]): 0 | Wild oats plant response rating (wild oat; [1]): 2 | Plant response rating, Wild oats (wild oat; Preemergence, Rate 62 g/ha): 0 | Plant response rating, Wild oats (wild oat; Preemergence, Rate 125 g/ha): 0 | Wild oats plant response rating (wild oat; [5]): 0 | Wild oats plant response rating (wild oat; [6]): 0 | Wild oats plant response rating (wild oat; [7]): 0 | Wild oats plant response rating (wild oat; [8]): 0 | Nutsedge plant response rating (purple nutsedge; [1]): 0 | Plant response rating, Nutsedge (purple nutsedge; [4]): 0 | Nutsedge plant response rating (purple nutsedge; [5]): 0 | Nutsedge plant response rating (purple nutsedge; [6]): 0 | Nutsedge plant response rating (purple nutsedge; [7]): 0 | Plant response rating, Rice (0 to 10 scale, 0 is no effect, 10 is complete control) (rice; [9]): 0 | Rice plant response rating (0 to 10 scale, 0 is no effect, 10 is complete control) (rice; [10]): 0 | Rice plant response rating (rice; [11]): 0 | Rice plant response rating (rice; [12]): 0 | Plant response rating, S. Flatsedge (0 to 10 scale, 0 is no effect, 10 is complete control) (smallflower flatsedge; [9]): 0 | S. Flatsedge plant response rating (0 to 10 scale, 0 is no effect, 10 is complete control) (smallflower flatsedge; [10]): 0 | S. Flatsedge plant response rating (smallflower flatsedge; [11]): 0 | S. Flatsedge plant response rating (smallflower flatsedge; [12]): 0 | Plant response rating, Ducksalad (0 to 10 scale, 0 is no effect, 10 is complete control) (duck salad; [9]): 0 | Ducksalad plant response rating (0 to 10 scale, 0 is no effect, 10 is complete control) (duck salad; [10]): 0 | Ducksalad plant response rating (duck salad; [11]): 0 | Ducksalad plant response rating (duck salad; [12]): 0
